Experimental findings from patent publication US20190085024A1, “Alpha-Ketoamide Inhibitors Of Cysteine Proteases” (Phelix Therapeutics, priority 2017, published 2019) are described below.

SMILES strings stand for the structures.

For one assay, the system named is SMA. Kind of assay: Fibrosis-SMA Elisa. Format: cell-based.
Another assay deals with Collagen. Nature of the assay: Fibrosis-Sirius Red Collagen Assay. Format: cell-based.
Another assay addresses Calpain. Kind of assay: Calpain enzyme assay. Format: biochemical. The settings on record: Ki by Morrison equation; pH 7.5, 5 mM CaCl2.
Another assay addresses Cathepsin L (Homo sapiens, UniProt P07711). Nature of the assay: Cathepsin L enzyme assay. The settings on record: Ki by Morrison equation; pH 5.5, substrate Z-Phe-Arg-Amc; read-out: Cat L. Format: biochemical. An excerpt:
Two wells contained DMSO only for controls.
Velocity was converted to μM/sec.

Another assay has as its target Cathepsin B (Homo sapiens, UniProt P07858). Nature of the assay: Cathepsin B enzyme assay. The settings on record: Cat B (μM), Ki by Morrison equation; pH 6.0, substrate Z-Phe-Arg-Amc.

Sequence of Cathepsin L (P07711 114-333, species assumed): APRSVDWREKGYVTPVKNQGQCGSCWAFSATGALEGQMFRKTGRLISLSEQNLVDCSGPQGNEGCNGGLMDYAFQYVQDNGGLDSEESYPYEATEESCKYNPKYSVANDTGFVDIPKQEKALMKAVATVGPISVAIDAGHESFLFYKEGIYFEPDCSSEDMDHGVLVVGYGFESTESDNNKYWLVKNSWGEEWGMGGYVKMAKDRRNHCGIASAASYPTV

By IC50 is commonly meant the point on the concentration scale where inhibition reaches its midpoint. A higher IC50 goes with weaker potency in that assay. In the case of `CCC(C)C(NC(=O)C(CC(C)C)NC(=O)OCc1ccccc1)C(=O)C(=O)NC(Cc1ccc2ccccc2c1)C(N)=O` (stereo not shown) [PHELIX309, benzyl (1-((1-((1-amino-3-(naphthalen-2-yl)-1-oxopropan-2-yl)amino)-4-methyl-1,2-dioxohexan-3-yl)amino)-4-methyl-1-oxopentan-2-yl)carbamate], the values for the IC50 in the assay on SMA and with Collagen were 2 µM and 2.7 µM, respectively. In addition, the Ki at Calpain is 0.00134 µM; at Cathepsin L, 0.00976 µM; on Cathepsin B, > 10 µM.

For the molecule `CCC(C)C(NC(=O)C(CC(C)C)NC(=O)OCc1ccccc1)C(=O)C(=O)N1CC(C(=O)NC(Cc2ccc3ccccc3c2)C(N)=O)C1` (stereo not shown) [PHELIX297, benzyl (1-((1-(3-((1-amino-3-(naphthalen-2-yl)-1-oxopropan-2-yl)carbamoyl)azetidin-1-yl)-4-methyl-1,2-dioxohexan-3-yl)amino)-4-methyl-1-oxopentan-2-yl)carbamate], the half-inhibitory concentration (IC50) in the assay with SMA worked out at 3.4 µM; in the assay on Collagen, 3.8 µM. Further, the Ki on Calpain came out at 0.0399 µM; at Cathepsin L it was 0.0424 µM; at Cathepsin B, 0.235 µM.
